Measurements from patent publication US12195490B2, “STRAD-binding agents and uses thereof” (The Regents of the University of California, priority 2020, dated 2025).
Where a name gives a salt, the structure may show the parent alone.

system: ACHN cell line; assay: drug screen of the SelleckChem kinase inhibitor library with and without 5 uM SU-329, Cell-Titer Glo after 5 days; assay type: cell-based; settings: kinase inhibitor at 200 nM with and without 5 uM SU329; ACHN cell line; 5 days; Cell-Titer Glo

Structure (SMILES)	log2fc
Cc1cc(F)c(Nc2ncnc3cc(OCc4ccccc4)ccc23)cc1O.Cl [ZM 323881 HCl]	0.1765
CCN1CCN(C(=O)Cc2ccc(Nc3ncc(F)c(Nc4ccc(C(=O)Nc5ccccc5Cl)cc4)n3)cc2)CC1 [Aurora A Inhibitor I]	−0.1962
N#CCNC(=O)c1ccc(-c2ccnc(Nc3ccc(N4CCOCC4)cc3)n2)cc1 [Momelotinib (CYT387)]	−1.441
C=CC(=O)Nc1cccc(Nc2nc(Nc3ccc(N4CCN(C(C)=O)CC4)cc3OC)ncc2C(F)(F)F)c1 [Rociletinib (CO-1686, AVL-301)]	−0.001899
COc1cc2nccc(Oc3ccc(NC(=O)Nc4ccc(F)cc4F)c(F)c3)c2cc1OC [Ki8751]	0.1011
CNC(=O)c1cc(COc2nnc(Nc3ccc(Cl)cc3)c3ccoc23)ccn1 [Telatinib]	0.2479
COc1ccccc1-c1cc(Nc2cccc(CS(N)(=O)=O)c2)ncn1 [LDC000067]	−0.05049
CC(O)C(=O)O.CC(O)C(=O)O.CN1CCN(c2ccc3nc(-c4c(N)c5c(F)cccc5[nH]c4=O)[nH]c3c2)CC1 [Dovitinib (TKI-258) Dilactic Acid]	−0.3598
CCc1cnn2c(NCc3ccc[n+]([O-])c3)cc(N3CCCC[C@H]3CCO)nc12 [Dinaciclib (SCH727965)]	1.402
O=C(NC[C@H](O)CO)c1ccncc1Nc1ccc(I)cc1F [Pimasertib (AS-703026), AS703026, reference compound]	0.3252
CO[C@H]1C[C@@H]2CC[C@@H](C)[C@@](O)(O2)C(=O)C(=O)N2CCCC[C@H]2C(=O)O[C@H]([C@H](C)C[C@@H]2CC[C@@H](OP(C)(C)=O)[C@H](OC)C2)CC(=O)[C@H](C)/C=C(\C)[C@@H](O)[C@@H](OC)C(=O)[C@H](C)C[C@H](C)/C=C/C=C/C=C/1C [Ridaforolimus (Deforolimus, MK-8669)]	−1.384
Cc1cn(-c2cc(NC(=O)c3ccc(C)c(Nc4nccc(-c5cccnc5)n4)c3)cc(C(F)(F)F)c2)cn1 [Nilotinib (AMN-107)]	0.331
Cc1cc(Nc2cc(CN3CCOCC3)c3nc(C)c(Cc4ccc(Cl)cc4F)n3n2)n[nH]1 [Gandotinib (LY2784544)]	1.04
C=CC(=O)N1CCC[C@@H](n2nc(-c3ccc(Oc4ccccc4)cc3)c3c(N)ncnc32)C1 [Ibrutinib (PCI-32765)]	1.289
CN(C)CCCn1cc(C2=C(c3c[nH]c4ccccc34)C(=O)NC2=O)c2ccccc21 [Bisindolylmaleimide I (GF109203X)]	−0.2332
Cc1nc(NC(=O)N2CCC[C@H]2C(N)=O)sc1-c1ccnc(C(C)(C)C(F)(F)F)c1 [Alpelisib (BYL719)]	−0.1349
CCOC(=O)c1cnc2ccc(-c3cncc(NS(=O)(=O)c4ccccc4)c3)cn12 [HS-173]	0.4717
COc1ccc2cc(-c3nc(-c4ccc([S+](C)[O-])cc4)[nH]c3-c3ccncc3)ccc2c1 (stereo not shown) [Tie2 kinase inhibitor]	−0.08697
Cc1ccc(S(=O)(=O)/C=C/C#N)cc1 [BAY 11-7082, reference compound]	−0.1258
Nc1ccc(-c2ccc3ncc4ccc(=O)n(-c5cccc(C(F)(F)F)c5)c4c3c2)cn1 [Torin 2]	1.267
COc1cc2ncnc(Nc3cccc(Cl)c3)c2cc1OC [AG-1478 (Tyrphostin AG-1478), AG-1478, reference compound]	0.2903
CC1(COc2ccc3c(c2)ncn3-c2ccc3cccc(N4CCC(N)CC4)c3n2)COC1 [Crenolanib (CP-868596)]	0.3666
Cn1cc(-c2ccc3nnc(C(F)(F)c4ccc5ncccc5c4)n3n2)cn1 [JNJ-38877605]	0.02907
COc1cc2c(Oc3ccc(NC(=O)C4(C(=O)Nc5ccc(F)cc5)CC4)cc3F)ccnc2cc1OCCCN1CCOCC1 [Foretinib (GSK1363089)]	−0.1359
O=C(c1cccc(Cl)c1F)N1CCN(Cc2cccc(Nc3nccs3)n2)CC1 [MK-8745]	−0.3779

Structure (SMILES)	log2fc
CC(C)(C)n1nc(-c2ccc(Cl)cc2)c2c(N)ncnc21 [PP2]	−0.01088
[H]/N=C(/N)N/C(=N/[H])NCCc1ccccc1 [Phenformin HCl]	0.5945
Cc1nc(Nc2n[nH]c3c2CN(C(=O)N[C@H](CN(C)C)c2ccccc2)C3(C)C)c2sccc2n1 [PF-3758309]	0.8283
CN1CCN(c2ccc(Nc3cc(-c4cccc(-n5ccc6cc(C7CC7)cc(F)c6c5=O)c4CO)cn(C)c3=O)nc2)CC1 [RN486]	0.08695
CNC(=O)CN1CCC(Oc2cc3c(Nc4cccc(Cl)c4F)ncnc3cc2OC)CC1 [Sapitinib (AZD8931), AZD8931, reference compound]	0.358
C=CC(=O)Nc1cccc(Nc2nc(Nc3ccc(Oc4ccnc(C(=O)NC)c4)cc3)ncc2F)c1 [CNX-774]	−0.2519
Oc1c2ccccc2c2c3c(cccc13)N=N2 [SP600125, reference compound]	0.06823
Cn1c(=O)c(F)c(Nc2ccc(I)cc2F)c2c(=O)n(C[C@@H](O)CO)cnc21 [TAK-733, reference compound]	0.08618
CN(C)Cc1cccc(N/C(=C2\C(=O)Nc3cc(C(=O)N(C)C)ccc32)c2ccccc2)c1 [BIX 02189]	−0.08248
CNC(=O)c1cc(Oc2ccc(NC(=O)Nc3cc(C(C)(C)C)nn3-c3ccc4ncccc4c3)c(F)c2)ccn1 [Rebastinib (DCC-2036)]	0.007715
COc1cc2c(Nc3ccc(NC(=O)c4ccccc4)cc3)ncnc2cc1OCCCN1CCOCC1 [ZM 447439]	0.52
CN(C)CCOc1ccc(-c2nc(-c3ccncc3)c(-c3ccc4c(c3)CC/C4=N\O)[nH]2)cc1 [SB590885]	0.2113
CC(C)(C)NS(=O)(=O)c1cncc(-c2cc(F)c3nc(N)nn3c2)c1 [CZC24832]	0.2139
CCCNC(=O)Nc1ccc(Oc2ncnc3cc(OC)c(OC)cc23)cc1Cl [KRN 633]	0.02524
COc1cc2ncnc(Nc3ccc(O)c(Br)c3)c2cc1OC [WHI-P154]	0.511
O=C(NOCC1CC1)c1ccc(F)c(F)c1Nc1ccc(I)cc1Cl [PD184352 (CI-1040), PD184352, reference compound]	0.3257
COc1cc2ncnc(Nc3ccc(F)c(Cl)c3)c2cc1OCCCN1CCOCC1 [Gefitinib (ZD1839)]	0.4905
CCc1cc(Nc2nccc(-c3c(-c4ccc(OC)c(C(=O)Nc5c(F)cccc5F)c4)nc4ccccn34)n2)c(OC)cc1N1CCC(N2CCN(S(C)(=O)=O)CC2)CC1 [GSK1904529A]	0.6211
COc1cc(Nc2ncc(F)c(Nc3ccc4c(n3)NC(=O)C(C)(C)O4)n2)cc(OC)c1OC [R406 (free base)]	0.8334
COc1cc2ncnc(Nc3ccc(F)c(Cl)c3)c2cc1NC(=O)/C=C/CN1CCCCC1 [Dacomitinib (PF299804, PF299)]	0.3997
CC(C)(O)CC(=O)NCCn1ccc2ncnc(Nc3ccc(Oc4cccc(C(F)(F)F)c4)c(Cl)c3)c21 [TAK-285, reference compound]	0.3876
O=C(NC(NC(=S)Nc1ccc(F)c([N+](=O)[O-])c1)C(Cl)(Cl)Cl)C(c1ccccc1)c1ccccc1 (stereo not shown) [CGK 733]	0.1923
Cc1cc([C@@H](C)Nc2ccccc2C(=O)O)c2nc(N3CCOCC3)cc(=O)n2c1 [AZD6482]	−0.1098
COc1cc(OC)c(/C=C/S(=O)(=O)Cc2ccc(OC)c(NCC(=O)O)c2)c(OC)c1 [Rigosertib (ON-01910)]	0.6643
